Measured values: the NIST ThermoML archive (doi:10.1021/je5009334)
± gives the expanded uncertainty stated by the source.

Test: xn = mol fraction of the nth substance listed
Details: 101 kPa, Liquid; for speed of sound: Sing-around technique in a fixed-path interferometer; for mass density: Vibrating tube method

`CCC(O)CO` (stereo not given) [1,2-butanediol] + CCC(C)O showed a speed of sound (298.15 K, x1 = 0.1) of 1231 ± 1.2 m/s, a speed of sound (298.15 K, x1 = 0.2) of 1250.6 ± 1.2 m/s and a speed of sound (298.15 K, x1 = 0.3) of 1270.9 ± 1.2 m/s. It also gave a speed of sound (298.15 K, x1 = 0.4) of 1292.2 ± 1.2 m/s, a speed of sound (298.15 K, x1 = 0.5) of 1315.5 ± 1.2 m/s and a speed of sound (298.15 K, x1 = 0.6) of 1340.2 ± 1.2 m/s. It also gave a speed of sound (298.15 K, x1 = 0.7) of 1365.7 ± 1.3 m/s, a speed of sound (298.15 K, x1 = 0.8) of 1393.3 ± 1.3 m/s and a speed of sound (298.15 K, x1 = 0.9) of 1423.1 ± 1.3 m/s. For the same compound, the speed of sound (298.15 K, x1 = 1) was 1452.6 ± 1.3 m/s, the mass density (298.15 K, x1 = 0.1) was 821.98 ± 0.24 kg/m3 and the mass density (298.15 K, x1 = 0.2) was 841.211 ± 0.24 kg/m3. The mass density (298.15 K, x1 = 0.3) was 860.512 ± 0.24 kg/m3, the mass density (298.15 K, x1 = 0.4) was 879.912 ± 0.25 kg/m3 and the mass density (298.15 K, x1 = 0.5) was 899.493 ± 0.25 kg/m3. For the same compound, the mass density (298.15 K, x1 = 0.6) was 919.721 ± 0.24 kg/m3, the mass density (298.15 K, x1 = 0.7) was 939.207 ± 0.24 kg/m3 and the mass density (298.15 K, x1 = 0.8) was 959.168 ± 0.23 kg/m3. The mass density (298.15 K, x1 = 0.9) was 978.763 ± 0.23 kg/m3, the mass density (298.15 K, x1 = 1) was 998.509 ± 0.23 kg/m3 and the speed of sound (303.15 K, x1 = 0.1) was 1213.1 ± 1.2 m/s. It also gave a speed of sound (303.15 K, x1 = 0.2) of 1233.5 ± 1.2 m/s, a speed of sound (303.15 K, x1 = 0.3) of 1253.8 ± 1.2 m/s and a speed of sound (303.15 K, x1 = 0.4) of 1275.5 ± 1.2 m/s. The speed of sound (303.15 K, x1 = 0.5) was 1299.1 ± 1.2 m/s, the speed of sound (303.15 K, x1 = 0.6) was 1324.6 ± 1.2 m/s and the speed of sound (303.15 K, x1 = 0.7) was 1350 ± 1.2 m/s. It also gave a speed of sound (303.15 K, x1 = 0.8) of 1378.1 ± 1.2 m/s, a speed of sound (303.15 K, x1 = 0.9) of 1408.3 ± 1.3 m/s and a speed of sound (303.15 K, x1 = 1) of 1438.2 ± 1.3 m/s. The mass density (303.15 K, x1 = 0.1) was 817.802 ± 0.24 kg/m3, the mass density (303.15 K, x1 = 0.2) was 837.068 ± 0.24 kg/m3 and the mass density (303.15 K, x1 = 0.3) was 856.416 ± 0.24 kg/m3. It also gave a mass density (303.15 K, x1 = 0.4) of 875.848 ± 0.25 kg/m3, a mass density (303.15 K, x1 = 0.5) of 895.477 ± 0.25 kg/m3 and a mass density (303.15 K, x1 = 0.6) of 915.764 ± 0.25 kg/m3. The mass density (303.15 K, x1 = 0.7) was 935.294 ± 0.24 kg/m3, the mass density (303.15 K, x1 = 0.8) was 955.308 ± 0.23 kg/m3 and the mass density (303.15 K, x1 = 0.9) was 974.958 ± 0.23 kg/m3. It also gave a mass density (303.15 K, x1 = 1) of 994.759 ± 0.23 kg/m3, a speed of sound (308.15 K, x1 = 0.1) of 1195.3 ± 1.2 m/s and a speed of sound (308.15 K, x1 = 0.2) of 1216 ± 1.2 m/s. For the same compound, the speed of sound (308.15 K, x1 = 0.3) was 1236.8 ± 1.2 m/s, the speed of sound (308.15 K, x1 = 0.4) was 1258.8 ± 1.2 m/s and the speed of sound (308.15 K, x1 = 0.5) was 1282.9 ± 1.2 m/s. The speed of sound (308.15 K, x1 = 0.6) was 1308.7 ± 1.2 m/s, the speed of sound (308.15 K, x1 = 0.7) was 1334.5 ± 1.2 m/s and the speed of sound (308.15 K, x1 = 0.8) was 1362.8 ± 1.2 m/s. For the same compound, the speed of sound (308.15 K, x1 = 0.9) was 1393.4 ± 1.2 m/s, the speed of sound (308.15 K, x1 = 1) was 1423.6 ± 1.3 m/s and the mass density (308.15 K, x1 = 0.1) was 813.551 ± 0.24 kg/m3. It also gave a mass density (308.15 K, x1 = 0.2) of 832.862 ± 0.24 kg/m3, a mass density (308.15 K, x1 = 0.3) of 852.256 ± 0.24 kg/m3 and a mass density (308.15 K, x1 = 0.4) of 871.737 ± 0.25 kg/m3. For the same compound, the mass density (308.15 K, x1 = 0.5) was 891.419 ± 0.25 kg/m3, the mass density (308.15 K, x1 = 0.6) was 911.761 ± 0.25 kg/m3 and the mass density (308.15 K, x1 = 0.7) was 931.345 ± 0.24 kg/m3. For the same compound, the mass density (308.15 K, x1 = 0.8) was 951.414 ± 0.23 kg/m3, the mass density (308.15 K, x1 = 0.9) was 971.12 ± 0.23 kg/m3 and the mass density (308.15 K, x1 = 1) was 990.971 ± 0.23 kg/m3. The speed of sound (313.15 K, x1 = 0.1) was 1177.3 ± 1.2 m/s, the speed of sound (313.15 K, x1 = 0.2) was 1198.2 ± 1.2 m/s and the speed of sound (313.15 K, x1 = 0.3) was 1219.7 ± 1.2 m/s. It also gave a speed of sound (313.15 K, x1 = 0.4) of 1242.2 ± 1.2 m/s, a speed of sound (313.15 K, x1 = 0.5) of 1266.7 ± 1.2 m/s and a speed of sound (313.15 K, x1 = 0.6) of 1292.9 ± 1.2 m/s. For the same compound, the speed of sound (313.15 K, x1 = 0.7) was 1319 ± 1.2 m/s, the speed of sound (313.15 K, x1 = 0.8) was 1347.7 ± 1.2 m/s and the speed of sound (313.15 K, x1 = 0.9) was 1378.5 ± 1.2 m/s. For the same compound, the speed of sound (313.15 K, x1 = 1) was 1409.1 ± 1.3 m/s, the mass density (313.15 K, x1 = 0.1) was 809.205 ± 0.24 kg/m3 and the mass density (313.15 K, x1 = 0.2) was 828.579 ± 0.24 kg/m3. For the same compound, the mass density (313.15 K, x1 = 0.3) was 848.033 ± 0.24 kg/m3, the mass density (313.15 K, x1 = 0.4) was 867.576 ± 0.25 kg/m3 and the mass density (313.15 K, x1 = 0.5) was 887.316 ± 0.25 kg/m3. The mass density (313.15 K, x1 = 0.6) was 907.718 ± 0.25 kg/m3, the mass density (313.15 K, x1 = 0.7) was 927.356 ± 0.24 kg/m3 and the mass density (313.15 K, x1 = 0.8) was 947.483 ± 0.23 kg/m3. It also gave a mass density (313.15 K, x1 = 0.9) of 967.241 ± 0.23 kg/m3, a mass density (313.15 K, x1 = 1) of 987.152 ± 0.23 kg/m3 and a speed of sound (318.15 K, x1 = 0.1) of 1159.3 ± 1.2 m/s. For the same compound, the speed of sound (318.15 K, x1 = 0.2) was 1180.7 ± 1.2 m/s, the speed of sound (318.15 K, x1 = 0.3) was 1202.6 ± 1.2 m/s and the speed of sound (318.15 K, x1 = 0.4) was 1225.5 ± 1.2 m/s. For the same compound, the speed of sound (318.15 K, x1 = 0.5) was 1250.5 ± 1.2 m/s, the speed of sound (318.15 K, x1 = 0.6) was 1277 ± 1.2 m/s and the speed of sound (318.15 K, x1 = 0.7) was 1303.5 ± 1.2 m/s. The speed of sound (318.15 K, x1 = 0.8) was 1332.5 ± 1.2 m/s, the speed of sound (318.15 K, x1 = 0.9) was 1363.6 ± 1.2 m/s and the speed of sound (318.15 K, x1 = 1) was 1394.5 ± 1.2 m/s. It also gave a mass density (318.15 K, x1 = 0.1) of 804.796 ± 0.24 kg/m3, a mass density (318.15 K, x1 = 0.2) of 824.244 ± 0.24 kg/m3 and a mass density (318.15 K, x1 = 0.3) of 843.762 ± 0.24 kg/m3. For the same compound, the mass density (318.15 K, x1 = 0.4) was 863.365 ± 0.25 kg/m3, the mass density (318.15 K, x1 = 0.5) was 883.169 ± 0.26 kg/m3 and the mass density (318.15 K, x1 = 0.6) was 903.63 ± 0.25 kg/m3. For the same compound, the mass density (318.15 K, x1 = 0.7) was 923.329 ± 0.24 kg/m3, the mass density (318.15 K, x1 = 0.8) was 943.516 ± 0.23 kg/m3 and the mass density (318.15 K, x1 = 0.9) was 963.332 ± 0.23 kg/m3. The mass density (318.15 K, x1 = 1) was 983.297 ± 0.23 kg/m3, the speed of sound (323.15 K, x1 = 0.1) was 1141.5 ± 1.2 m/s and the speed of sound (323.15 K, x1 = 0.2) was 1163.1 ± 1.2 m/s. The speed of sound (323.15 K, x1 = 0.3) was 1185.5 ± 1.2 m/s, the speed of sound (323.15 K, x1 = 0.4) was 1208.9 ± 1.2 m/s and the speed of sound (323.15 K, x1 = 0.5) was 1234.3 ± 1.2 m/s. It also gave a speed of sound (323.15 K, x1 = 0.6) of 1260.8 ± 1.2 m/s, a speed of sound (323.15 K, x1 = 0.7) of 1288.4 ± 1.2 m/s and a speed of sound (323.15 K, x1 = 0.8) of 1317.6 ± 1.2 m/s. The speed of sound (323.15 K, x1 = 0.9) was 1348.7 ± 1.2 m/s, the speed of sound (323.15 K, x1 = 1) was 1379.9 ± 1.2 m/s and the mass density (323.15 K, x1 = 0.1) was 800.305 ± 0.24 kg/m3. The mass density (323.15 K, x1 = 0.2) was 819.834 ± 0.24 kg/m3, the mass density (323.15 K, x1 = 0.3) was 839.427 ± 0.24 kg/m3 and the mass density (323.15 K, x1 = 0.4) was 859.1 ± 0.25 kg/m3. It also gave a mass density (323.15 K, x1 = 0.5) of 878.969 ± 0.26 kg/m3, a mass density (323.15 K, x1 = 0.6) of 899.488 ± 0.25 kg/m3 and a mass density (323.15 K, x1 = 0.7) of 919.266 ± 0.24 kg/m3. It also gave a mass density (323.15 K, x1 = 0.8) of 939.516 ± 0.24 kg/m3, a mass density (323.15 K, x1 = 0.9) of 959.384 ± 0.23 kg/m3 and a mass density (323.15 K, x1 = 1) of 979.406 ± 0.23 kg/m3.
